Measurements: PMC8347432 (2021)

Tests used:
[1] = tested on: octamer duplex d(GCGATCGC)2 (3) (DNA, duplex) GCGATCGC; test: 1H NMR titration (chemical shift); details: 25 mM NaCl, 25 mM K3PO4, D2O buffer, pH 6.0, 10 °C, 0.29 mM compound
[2] = tested on: octamer duplex d(GCGATCGC)2 (3) (DNA, duplex) GCGATCGC; test: DOSY NMR (PGSE diffusion coefficients); details: 25 mM NaCl, 25 mM K3PO4, D2O buffer, pH 6.4, 10 °C, 0.29 mM compound

Row | Ka [1] [mM⁻¹] | Ka ([2]; 0.87 mM octamer) [mM⁻¹] | Ka ([1]; 5.89 ± 1.07 omitting H12 and H14) [mM⁻¹] | Ka ([2]; 0.92 mM octamer) [mM⁻¹] | SMILES
1 | 3.76 ± 1.19 | 2.0 ± 0.3 | – | – | CCc1c2c(nc3ccc(O)c(CN4CCC4)c13)-c1cc3c(c(=O)n1[C@@H]2CO)COC(=O)[C@]3(O)CC
2 | – | – | 5.00 ± 2.02 | 5.9 ± 0.3 | CCc1c2c(nc3ccc(O)c(CN4CCC4)c13)-c1cc3c(c(=O)n1[C@H]2CO)COC(=O)[C@]3(O)CC
